Laboratory results as given in the supplement of paper PMC10307832.

Legend:
Test in all cases: relative viability (nuclei count vs DMSO), 5 days (fraction); higher = more cells survive
[1] = compound: O=C(C[C@H]1NCCC[C@@H]1O)Cn1cnc2cc(Br)c(Cl)cc2c1=O (racemic) [Halofuginone] + Nc1ncn([C@H]2C[C@H](O)[C@@H](CO)O2)c(=O)n1 [Decitabine] (partner 2 µM)
Procedure, shortened: (§1)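 Relative viability is defined as nuclei in treated wells over nuclei in vehicle wells. Duplicate plates were run and medians reported. Lung cancer cell lines in 1536-well plates were dosed by pin tool one day after seeding, with one drug or with a fixed anchor-drug dose plus five library-drug doses (not always all listed) in √10 steps, and nuclei were counted after 5 days.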

Decitabine + Tozasertib = compound: Nc1ncn([C@H]2C[C@H](O)[C@@H](CO)O2)c(=O)n1 [Decitabine] + Cc1cc(Nc2cc(N3CCN(C)CC3)nc(Sc3ccc(NC(=O)C4CC4)cc3)n2)n[nH]1 [Tozasertib] (partner 0.1 µM)
Procedure, shortened: as §1

[2] = compound: O=C(C[C@H]1NCCC[C@@H]1O)Cn1cnc2cc(Br)c(Cl)cc2c1=O (racemic) [Halofuginone] + CS(=O)(=O)N1CCN(Cc2cc3nc(-c4cccc5[nH]ncc45)nc(N4CCOCC4)c3s2)CC1 [Pictilisib] (partner 1 µM)
Procedure, shortened: as §1

[3] = compound: O=C(C[C@H]1NCCC[C@@H]1O)Cn1cnc2cc(Br)c(Cl)cc2c1=O (racemic) [Halofuginone] + O=C(CCCCCCC(=O)Nc1ccccc1)NO [Vorinostat] (partner 1 µM)
Procedure, shortened: as §1

With NCI-H2405 the relative viability ([1]; first compound 0.001 µM) was 0.74, the relative viability ([1]; first compound 0.003162 µM) was 0.781 and the relative viability ([1]; first compound 0.01 µM) was 0.767. It also gave a relative viability ([1]; first compound 0.03162 µM) of 0.722, a relative viability ([1]; first compound 0.1 µM) of 0.632 and a relative viability (Decitabine + Tozasertib; first compound 0.04 µM) of 0.521. It also gave a relative viability (Decitabine + Tozasertib; first compound 0.1265 µM) of 0.598, a relative viability (Decitabine + Tozasertib; first compound 0.4 µM) of 0.526 and a relative viability (Decitabine + Tozasertib; first compound 1.265 µM) of 0.388. It also gave a relative viability (Decitabine + Tozasertib; first compound 4 µM) of 0.337, a relative viability ([2]; first compound 0.001 µM) of 0.522 and a relative viability ([2]; first compound 0.003162 µM) of 0.504. It also gave a relative viability ([2]; first compound 0.01 µM) of 0.512, a relative viability ([2]; first compound 0.03162 µM) of 0.478 and a relative viability ([2]; first compound 0.1 µM) of 0.421. It also gave a relative viability ([3]; first compound 0.001 µM) of 1.07, a relative viability ([3]; first compound 0.003162 µM) of 1.06 and a relative viability ([3]; first compound 0.01 µM) of 1.02. It also gave a relative viability ([3]; first compound 0.03162 µM) of 0.958 and a relative viability ([3]; first compound 0.1 µM) of 0.577.

In the case of NCI-H3122, the relative viability ([1]; first compound 0.001 µM) is reported as 0.438, the relative viability ([1]; first compound 0.003162 µM) is reported as 0.442 and the relative viability ([1]; first compound 0.01 µM) is reported as 0.381. It also gave a relative viability ([1]; first compound 0.03162 µM) of 0.413, a relative viability ([1]; first compound 0.1 µM) of 0.405 and a relative viability (Decitabine + Tozasertib; first compound 0.04 µM) of 0.328. The relative viability (Decitabine + Tozasertib; first compound 0.1265 µM) was 0.369, the relative viability (Decitabine + Tozasertib; first compound 0.4 µM) was 0.118 and the relative viability (Decitabine + Tozasertib; first compound 4 µM) was 0.246. For the same cell line, the relative viability ([2]; first compound 0.001 µM) was 0.58, the relative viability ([2]; first compound 0.003162 µM) was 0.581 and the relative viability ([2]; first compound 0.01 µM) was 0.538. For the same cell line, the relative viability ([2]; first compound 0.03162 µM) was 0.67, the relative viability ([2]; first compound 0.1 µM) was 0.494 and the relative viability ([3]; first compound 0.001 µM) was 0.924. It also gave a relative viability ([3]; first compound 0.003162 µM) of 1.13, a relative viability ([3]; first compound 0.01 µM) of 0.938 and a relative viability ([3]; first compound 0.03162 µM) of 1.01. The relative viability ([3]; first compound 0.1 µM) was 1.06.

Cell Line PC-3 [JPC-3] has a relative viability ([1]; first compound 0.001 µM) of 0.77, a relative viability ([1]; first compound 0.003162 µM) of 0.832 and a relative viability ([1]; first compound 0.01 µM) of 0.861. The relative viability ([1]; first compound 0.03162 µM) was 0.923, the relative viability ([1]; first compound 0.1 µM) was 0.781 and the relative viability (Decitabine + Tozasertib; first compound 0.04 µM) was 0.593. The relative viability (Decitabine + Tozasertib; first compound 0.1265 µM) was 0.59, the relative viability (Decitabine + Tozasertib; first compound 0.4 µM) was 0.459 and the relative viability (Decitabine + Tozasertib; first compound 1.265 µM) was 0.448. It also gave a relative viability (Decitabine + Tozasertib; first compound 4 µM) of 0.404, a relative viability ([2]; first compound 0.001 µM) of 0.703 and a relative viability ([2]; first compound 0.003162 µM) of 0.78. It also gave a relative viability ([2]; first compound 0.01 µM) of 0.699, a relative viability ([2]; first compound 0.03162 µM) of 0.772 and a relative viability ([2]; first compound 0.1 µM) of 0.769. The relative viability ([3]; first compound 0.001 µM) was 0.84, the relative viability ([3]; first compound 0.003162 µM) was 0.769 and the relative viability ([3]; first compound 0.01 µM) was 0.693. It also gave a relative viability ([3]; first compound 0.03162 µM) of 0.929 and a relative viability ([3]; first compound 0.1 µM) of 0.683.

PC-14 gave a relative viability ([1]; first compound 0.001 µM) of 0.231, a relative viability ([1]; first compound 0.003162 µM) of 0.273 and a relative viability ([1]; first compound 0.01 µM) of 0.237. The relative viability ([1]; first compound 0.03162 µM) was 0.259, the relative viability ([1]; first compound 0.1 µM) was 0.0807 and the relative viability (Decitabine + Tozasertib; first compound 0.04 µM) was 0.25. It also gave a relative viability (Decitabine + Tozasertib; first compound 0.1265 µM) of 0.182, a relative viability (Decitabine + Tozasertib; first compound 0.4 µM) of 0.0787 and a relative viability (Decitabine + Tozasertib; first compound 1.265 µM) of 0.0922. It also gave a relative viability (Decitabine + Tozasertib; first compound 4 µM) of 0.0951, a relative viability ([2]; first compound 0.001 µM) of 0.573 and a relative viability ([2]; first compound 0.003162 µM) of 0.635. The relative viability ([2]; first compound 0.01 µM) was 0.5, the relative viability ([2]; first compound 0.03162 µM) was 0.262 and the relative viability ([2]; first compound 0.1 µM) was 0.037. The relative viability ([3]; first compound 0.001 µM) was 0.803, the relative viability ([3]; first compound 0.003162 µM) was 0.626 and the relative viability ([3]; first compound 0.01 µM) was 0.646. The relative viability ([3]; first compound 0.03162 µM) was 0.292 and the relative viability ([3]; first compound 0.1 µM) was 0.0442.
